Experimental data from patent US20070129334A1, “Orally Active Purine-Based Inhibitors of Heat Shock Protein 90” (CONFORMA THERAPEUTICS CORPORATION, priority 2001, published 2007).
Where two headings read alike, the source gives them in different places. Values belong to the compound of their own block, whether it stands above or below them.

Columns and labels:
[1] = tested on: HER-2 receptor (Hsp90 client) in MCF-7 cells; experiment: HER-2 degradation assay (MCF-7 cells, 16 h, phycoerythrin-labeled antibody and flow cytometry); type: cell-based, human
[2] = in vivo; conditions: Balb/C, mouse, plasma
[3] = tested on: MCF-7 breast cancer cells; experiment: MTS cell growth inhibition assay; type: cell-based, human; conditions: MCF-7 cells
[4] = Pharmacokinetics in Balb/C mice (IV 10 mg/kg, PO 100 mg/kg); conditions: for IV Parameters T1/2 / IV Parameters VSS / IV Parameters Cl: IV 10 mg/kg; for IV Parameters T1/2 / IV Parameters VSS / PO Parameters T1/2 / PO Parameters Cmax / PO Parameters Tmax / PO Parameters AUC: H3PO4 salts; for PO Parameters T1/2 / PO Parameters Cmax / PO Parameters Tmax / PO Parameters AUC: PO 100 mg/kg; for PO Parameters Cmax: plasma; for IV Parameters Cl: H3PO4 salts in phosphatidylcholine/water dispersion; for PO Parameters AUC: over 4 h; for PO Parameters % F: oral bioavailability, PO 100 mg/kg vs IV 10 mg/kg
[5] = tested on: Her-2 in MCF-7 cells; experiment: HER2 inhibition assay (Her-2 degradation, MCF-7 cells, 24 incubation, flow cytometry); type: cell-based; conditions: Homo sapiens, MCF7, concentration necessary to degrade 50% of Her 2 expression
Protocol: MCF-7 cells are seeded in 24 well plates at a density of approximately 30,000 cells/well and allowed to grow for 16 hours in DMEM supplemented with 10% FBS. Drug is then added at a concentration range of 100 uM to 0.01 uM. Cells are incubated for an additional […]. Drug treated cells and untreated control cells are trypsinized, and incubated at room temperature for 15 minutes with anti Her-2 neu Ab conjugated with phycoerythrin (Becton Dickinson, San Jose Calif.; Cat no. 340552) at a concentration of 0.25 ug/ml, or non-specific control IgG1 conjugated with phycoerythrin (Becton Dickinson, San Jose Calif.; Cat no. 340761). Samples were analyzed using a FACS Calibur flow cytometer (Becton Dickinson) equipped with Argon-ion laser that which emits 15 mW of 488 nm light for excitation of the phycoerythrin fluorochrome. 10,000 events were collected per sample. A fluorescence histogram was generated and the mean fluorescence intensity (mfi) of each sample was determined using Cellquest software. The background was defined as the mfi generated from cells incubated with control IgG, and was subtracted from each sample stained with the HER-2/neu Ab Percent degradation of Her-2 was calculated as follows: % Her-2 degradation=(mfi HER-2 sample)/(mfi HER-2 untreated cells)×100
The compounds in the table below were prepared as described above and evaluated for Her-2 degradation ability based on the above assay (example 314).

[6] = tested on: Purified native Hsp90 protein (mixture of alpha and beta) from HeLa cells; experiment: Fluorescence-based competitive binding assay for biotinylated-geldanamycin to purified Hsp90; set-up: species or system human; conditions: HSP90 binding ability; competition with biotin-GM
[7] = tested on: N87 xenograft model of human stomach cancer; conditions: for tumor growth inhibition: N87
[8] = Mouse pharmacokinetics after oral administration at 100 mg/kg
[9] = Solubility in simulated gastric fluid, simulated intestinal fluid and serum; type: physicochemical; conditions: for Serum (PH 7.4): solubility in serum; for Gastric (PH 2.0): solubility in simulated gastric fluid; for Intestinal (PH 6.5): solubility in simulated intestinal fluid
[10] = Homo sapiens, MCF7, MCF-7 cells, 16 h, SEM 6-11% of the mean, read-out: HER-2 IC50
[11] = Homo sapiens, MCF7, 120 h, 5 days, SEM 9-21% of the mean
[12] = Homo sapiens, MCF7, MCF-7 cells, 16 h, average of at least three observations, read-out: HER-2 IC50

IC50 [1, 10]: 210 nM | clearance ([2]; iv, 10 mg/kg): 33 mL/min/kg | AUC ([2]; po, 100 mg/kg): 6330 ng·h/mL | Tmax ([2]; po, 100 mg/kg): 30 min | bioavailability ([2]; po, 100 mg/kg): 28% | IC50 [3, 11]: 200 nM | IV Parameters T1/2 [4]: 78 min | IV Parameters VSS [4]: 3.4 L/kg | PO Parameters T1/2 [4]: 42 min | PO Parameters Cmax [4]: 4800 ng/mL
SMILES: CCC(C)NCCCn1c(Sc2cc(OC)ccc2I)nc2c(N)ncnc21 (racemic) [Compound 109, 9-(3-sec-Butylamino-propyl)-8-(2-iodo-5-methoxy-phenylsulfanyl)-9H-purin-6-ylamine (racemate)]

IC50 [1, 12]: 12000 nM | IC50 [5]: 6000 nM | IC50 [6]: 10000 nM
SMILES: CCCCn1c(Cc2cc(OC)ccc2OC)nc2c(N)ncnc21 [Compound 1, 8-(2,5-dimethoxybenzyl)-N-9-butyladenine]

IC50 [5]: 1500 nM | IC50 [6]: 2800 nM
SMILES: COc1ccc(OC)c(Cc2nc3c(N)ncnc3n2CCC=C(C)C)c1 [Compound 10, 8-(2,5-Dimethoxy-benzyl)-9-(4-methyl-pent-3-enyl)-9H-purin-6-ylamine]

SMILES: C=CCNC1=C2C[C@@H](C)C[C@H](OC)[C@H](O)[C@@H](C)/C=C(\C)[C@H](OC(N)=O)[C@@H](OC)/C=C\C=C(/C)C(=O)NC(=CC1=O)C2=O [Compound 17-AAG, 17-allylamino,17-desmethoxy-geldanamycin, reference compound]
IC50 ([1]; read-out: HER-2 IC50): 12.9 ± 0.3 nM | IC50 ([3]; 5 days): 32 ± 4 nM

IC50 [5]: 1500 nM | IC50 [6]: 1100 nM
SMILES: C#CCCCn1c(Cc2cc(OC)ccc2I)nc2c(N)ncnc21 [Compound 26, 8-(2-Iodo-5-methoxy-benzyl)-9-pent-4-ynyl-9H-purin-6-ylamine]

IC50 [5]: 800 nM | IC50 [6]: 900 nM
SMILES: COc1ccc(I)c(Cc2nc3c(N)ncnc3n2CCC=C(C)C)c1 [Compound 27, 8-(2-Iodo-5-methoxy-benzyl)-9-(4-methyl-pent-3-enyl)-9H-purin-6-yl amine]

IC50 [5]: 1000 nM | IC50 [6]: 2300 nM
SMILES: COc1ccc(I)c(Cc2nc3c(N)nc(F)nc3n2CCC=C(C)C)c1 [Compound 28, 2-Fluoro-8-(2-iodo-5-methoxy-benzyl)-9-(4-methyl-pent-3-enyl)-9H-purin-6-ylamine]

IC50 [5]: 800 nM | IC50 [6]: 900 nM
SMILES: C#CCCCn1c(Cc2cc(OC)ccc2I)nc2c(N)nc(F)nc21 [Compound 29, 2-Fluoro-8-(2-iodo-5-methoxy-benzyl)-9-pent-4-ynyl-9H-purin-6-ylamine]

IC50 [5]: 1500 nM | IC50 [6]: 1500 nM
SMILES: CCCCn1c(Sc2cc(OC)ccc2I)nc2c(N)ncnc21 [Compound 44, 9-Butyl-8-(2-iodo-5-methoxy-phenylsulfanyl)-9H-purin-6-ylamine]

IC50 [5]: 2000 nM | IC50 [6]: 1800 nM
SMILES: CCCCn1c(Sc2ccc(I)c(OC)c2)nc2c(N)ncnc21 [Compound 45, 9-Butyl-8-(4-iodo-3-methoxy-phenylsulfanyl)-9H-purin-6-ylamine]

IC50 [1, 12]: 370 nM | IC50 [5]: 300 nM | IC50 [6]: 900 nM
SMILES: COc1ccc(I)c(Sc2nc3c(N)ncnc3n2CCC=C(C)C)c1 [Compound 46, 8-(2-Iodo-5-methoxy-phenylsulfanyl)-9-(4-methyl-pent-3-enyl)-9H-purin-6-ylamine]

SMILES: C#CCCCn1c(Sc2cc(OC)ccc2I)nc2c(N)ncnc21 [Compound 47, 8-(2-Iodo-5-methoxy-phenylsulfanyl)-9-pent-4-ynyl-9H-purin-6-ylamine]
IC50 [5]: 300 nM | IC50 [6]: 800 nM

SMILES: C#CCCCn1c(Sc2cc(OC)ccc2OC)nc2c(N)ncnc21 [Compound 57, 8-(2,5-dimethoxy-phenylsulfanyl)-9-pent-4-ynyl-9H-purin-6-ylamine]
IC50 [5]: 1400 nM | IC50 [6]: 4000 nM

IC50 [5]: 700 nM | IC50 [6]: 1300 nM
SMILES: COc1ccc(OC)c(Sc2nc3c(N)ncnc3n2CCC=C(C)C)c1 [Compound 63, 8-(2,5-dimethoxy-phenylsulfanyl)-9-(4-methyl-pent-3-enyl)-9H-purin-6-ylamine]

IC50 [1, 10]: 140 nM | bioavailability ([2]; oral, 100 mg/kg): ≥ 50% | IC50 [3, 11]: 200 nM | IV Parameters T1/2 [4]: 96 min | IV Parameters VSS [4]: 24 L/kg | IV Parameters Cl [4]: 131 mL/min/kg | PO Parameters T1/2 [4]: 54 min | PO Parameters Tmax [4]: 30 min | PO Parameters Cmax [4]: 6700 ng/mL | PO Parameters AUC [4]: 680 µg·min/mL | PO Parameters % F [4]: 97%
SMILES: COc1ccc(I)c(Sc2nc3c(N)ncnc3n2CCCNC(C)(C)C)c1 [Compound 95, 9-(3-tert-Butylamino-propyl)-8-(2-iodo-5-methoxy-phenylsulfanyl)-9H-purin-6-ylamine]

IC50 [1, 10]: 210 nM | IC50 ([1]; Homo sapiens, MCF7, MCF-7 cells, read-out: HER-2 IC50): 210 nM | Cmax ([2]; po, 100 mg/kg): 12 µM | IC50 [3, 11]: 200 nM | IC50 ([3]; Homo sapiens, MCF7): 200 nM | IV Parameters T1/2 [4]: 30 min | IV Parameters VSS [4]: 2.4 L/kg | IV Parameters Cl [4]: 69 mL/min/kg | PO Parameters T1/2 [4]: 36 min | PO Parameters Tmax [4]: 30 min | PO Parameters Cmax [4]: 5800 ng/mL | PO Parameters AUC [4]: 590 µg·min/mL | PO Parameters % F [4]: 42%
SMILES: CCC(CC)NCCCn1c(Sc2cc(OC)ccc2I)nc2c(N)ncnc21 [Compound 108, 9-[3-(1-Ethyl-propylamino)-propyl]-8-(2-iodo-5-methoxy-phenylsulfanyl)-9H-purin-6-ylamine]

SMILES: COc1ccc(I)c(Sc2nc3c(N)ncnc3n2CCNCC(C)(C)C)c1.O=P(O)(O)O [Compound 132.H3PO4, 9-[2-(2,2-Dimethyl-propylamino)-ethyl]-8-(2-iodo-5-methoxy-phenylsulfanyl)-9H-purin-6-ylamine, H3PO4 salt]
tumor growth inhibition ([7]; oral 2×100 mg/kg/day, 5 days/week): statistically significant (p=0.02) tumor growth inhibition | toxicity ([7]; oral 2×100 mg/kg/day, 5 days/week, mice): no overt toxicity

SMILES: CCOP(=O)(CCn1c(Sc2nc3cncc(Cl)c3s2)nc2c(N)ncnc21)OCC [Compound 206, {2-[6-Amino-8-(7-chloro-thiazolo[4,5-c]pyridinl-2-ylsulfanyl)-purin-9-yl]-ethyl}-phosphonic acid diethyl ester]
plasma concentrations (in words) ([8]; PO 100 mg/kg): below the level of detection | Cmax ([8]; in vivo, po, 100 mg/kg): < 500 ng/mL | solubility compared with benzothioazol analog 204 ([9]; simulated gastric fluid, simulated intestinal fluid, serum): significantly more soluble in all three solutions | Serum (PH 7.4) [9]: 14 µg/mL | Gastric (PH 2.0) [9]: 124 µg/mL | Intestinal (PH 6.5) [9]: 38.3 µg/mL

SMILES: Nc1ncnc2c1nc(Sc1nc3cccc(Cl)c3s1)n2CCNC1CC1 [Compound 264]
oral bioavailability (in words) [8]: orally bioavailable | C-max ([8]; PO 100 mg/kg): 4513 ng/mL | Mouse PK PO AUC at 100 mg/kg PO ([8]; PO 100 mg/kg): 430511 ng·min/mL | Mouse PK PO Cmax at 100 mg/kg ([8]; PO 100 mg/kg): 4479 ng/mL | time of C-max after dosing ([8]; PO 100 mg/kg): 30 min | half life ([8]; PO 100 mg/kg, estimated): ~90 min | IC50 ([1]; 9-N-alkyl position SAR, head prints no unit, nM, read-out: HER-2): 110 nM | Serum (PH 7.4) [9]: 59 µg/mL | Gastric (PH 2.0) [9]: 245 µg/mL | Intestinal (PH 6.5) [9]: 21 µg/mL | tumor growth inhibition ([7]; oral 200 mg/kg 5 days/week, day 39, vs control group): 56%

SMILES: C#CCCCn1c(Sc2cc(OC)ccc2I)nc2c(N)ncnc21 [Compound 309, 8-(2-iodo-5-methoxy-phenylsulfanyl)-9-pent-4-ynyl-9H-purin-6-ylamine]
IC50 [3, 11]: 700 nM
